Results: patent publication US20240156698A1, “BIOCIDE COMPOSITIONS AND USES THEREOF” (PHARMOTECH SA, priority 2021, published 2024)

Key:
[1] = Skin absorption, Franz diffusion cells with dermatomed skin explants; assay type: in vitro ADME
Procedure: The transdermal absorption tests are carried out using a modified methodology of Franz diffusion cells, in which a semi-permeable membrane is used, such as reconstructed skin or skin explants. The membrane is located between the (i) donor and (ii) receptor compartments with the stratum corneum facing upward. The product is applied to the exposed stratum corneum in the donor compartment. Under the membrane, the receiving chamber contains a solution that simulates physiological conditions and where the tested substances are highly soluble.
After the product is delivered to the surface of the skin, samples are taken from the receptor compartment at predetermined times to determine the amount of substance accumulated in the receptor compartment as a function of time. In addition, at the end of the test, the extraction of the substance that has been retained in the skin is carried out. For the quantification of all the samples obtained, a suitable analytical method is necessary for each substance investigated. The skin explants were dermatomed (the dermatome device allows to cut skin layers of the skin at a determined thickness) at 200 μm thickness and placed on Franz cells, the receptor compartment was filled with PBS solution, used to simulate the physiological fluid and allowed to equilibrate for at least 30 minutes. Then, receptor solution was added into the donor compartment and the integrity of the skin was determined. After removing the solution and drying the donor, the composition of the invention 3 μl/0.38 cm2 (7.9 uL/cm2) was administered into the donor compartment.
Samples from the receptor compartment were taken at predetermined times to obtain the amount of active permeated. Said samples were filtered on 0.2 μm pore size cellulose acetate filters and analyzed by HPLC. The sample volume taken was replaced with fresh receptor solution. After taking the last sample from the receptor compartment, a first wash of the skin surface was performed with PBS, then, the Franz cells were disassembled.
The skin was carefully dried and the stratum corneum was removed by tape stripping. Tapes were put in 2 mL of extraction medium for at least 2 hours. The skin diffusion area was cut into small pieces and placed in extraction liquid under continuous stirring for 1 hour. After filtering the samples obtained, they were analyzed by HPLC to obtain the amount of substance retained on the skin.

CB2 receptors = CB2 receptors (Homo sapiens, UniProt P34972); details: compared with THC; cited from earlier work
[2] = 2 hours after application of the composition to the skin
[3] = composition of the invention 7.9 uL/cm2 applied to skin explant, Franz cell

Chain of CB2 receptors (P34972 whole entry): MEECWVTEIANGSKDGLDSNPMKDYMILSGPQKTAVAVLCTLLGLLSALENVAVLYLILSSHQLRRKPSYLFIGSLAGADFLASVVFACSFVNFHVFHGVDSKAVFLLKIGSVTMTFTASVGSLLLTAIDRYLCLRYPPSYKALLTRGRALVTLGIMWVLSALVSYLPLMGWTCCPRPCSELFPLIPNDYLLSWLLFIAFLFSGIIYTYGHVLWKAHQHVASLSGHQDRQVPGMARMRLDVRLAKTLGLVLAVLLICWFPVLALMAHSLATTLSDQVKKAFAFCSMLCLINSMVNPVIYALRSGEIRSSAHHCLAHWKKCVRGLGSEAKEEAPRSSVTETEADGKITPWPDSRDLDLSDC

C=C(C)[C@@H]1CCC(C)=C[C@H]1c1c(O)cc(CCCCC)cc1O [CBD, 2-[(1R,6R)-6-isopropenyl-3-methylcyclohex-2-en-1-yl]-5-pentylbenzene-1,3-diol]
Permeation of CBD (receptor compartment) ([1]; 1 hour after application of the composition to the skin): No permeation
CBD in the stratum corneum (tape stripping) [1, 2]: No CBD was found
Permeation of CBD (receptor compartment) [1, 2]: No permeation
CBD absorbed in the skin [1, 3]: 2.38±1.52 μg CBD/cm^2
CBD absorbed in the skin as share of the CBD applied on the top of the skin [1, 3]: 15.85%
Affinity for CB2 receptors (CB2 receptors): very low affinity
